Reference: article PMC8175350, “Drug repurposing screens identify chemical entities for the development of COVID-19 interventions” (Nature Communications, 2021)
Like-named read-outs stand apart in the source and are kept apart here.

Key:
[1] = system: SARS-CoV-2; assay: microbe, parasite or virus in culture; format: cell-based
[2] = system: Calu-3 cells; assay: Uninfected Calu-3 48 h Cell-Titer Glo cytotoxicity counter screen; details: curve plateau at infinite concentration
[3] = in vitro; details: human, Calu-3 uninfected cytotoxicity CC50 GeoMean
[4] = system: Calu-3 cells; assay: cells; details: Homo sapiens
[5] = system: HeLa-ACE2 cells; assay: Total cell count in the HeLa-ACE2 TOA assay; format: cell-based; details: Homo sapiens
Source text: Supplement 41467_2021_23328_MOESM3_ESM.xlsx, sheet "Table S1" | column: HeLa-ACE2 TOA cell count

[6] = system: SARS-CoV-2; assay: microbe, parasite or virus in culture; format: cell-based; remark: listed apart in the source
[7] = system: HEK293T; assay: HEK293T 72 h CellTiter-Glo cytotoxicity; details: 72 h
[8] = system: SARS-CoV-2; format: cell-based; details: combination with remdesivir, synergy score δ
[9] = system: HeLa-ACE2 cells; assay: Uninfected HeLa-ACE2 24 h live/dead cytotoxicity counter screen; format: cell-based, human; details: curve plateau at infinite concentration
[10] = as above; format: cell-based, human; details: human, uninfected HeLa-ACE2 cells; read-out: HeLa-ACE2 uninfected cytotoxicity CC50 GeoMean
[11] = system: SARS-CoV-2; assay: microbe, parasite or virus in culture; format: cell-based; remark: listed apart in the source
[12] = system: HepG2; assay: HepG2 72 h CellTiter-Glo cytotoxicity; details: 72 h
[13] = system: HeLa-ACE2 cells; assay: cells; details: Homo sapiens

## C=CC(=O)Nc1cc(Nc2nccc(-c3cn(C)c4ccccc34)n2)c(OC)cc1N(C)CCN(C)C [AZD-9291/Osimertinib]
[1]; Severe acute respiratory syndrome coronavirus 2, Calu-3, 48 h, curve plateau at infinite concentration, read-out: Calu-3 CoV-2 Sinf Average
  Emax: 100%
[1]; Severe acute respiratory syndrome coronavirus 2, Calu-3, detail column, read-out: Calu-3 CoV-2 EC50 GeoMean
  EC50: > 1590 nM
[2]
  Calu-3 uninfected cytotoxicity Sinf Average: -89%
[3]
  CC50: 1690 nM
[4]; Calu-3, 48 h, read-out: Calu-3 cell count Sinf Average
  Emax: -100%
[4]; Calu-3, read-out: Calu-3 cell count EC50 GeoMean
  EC50: > 9980 nM
[5]; HeLa-ACE2, 10 h, curve plateau at infinite concentration, read-out: HeLa-ACE2 TOA cell count Sinf Average
  Emax: -100%
[5]; HeLa-ACE2, read-out: HeLa-ACE2 TOA cell count EC50 GeoMean
  EC50: > 9600 nM
[6]; Severe acute respiratory syndrome coronavirus 2, HeLa-ACE2, 24 h, curve plateau at infinite concentration, read-out: HeLa-ACE2 CoV-2 Sinf Average
  Emax: 100%
[6]; Severe acute respiratory syndrome coronavirus 2, HeLa-ACE2, detail column, read-out: HeLa-ACE2 CoV-2 EC50 GeoMean
  EC50: 962 nM
[7]
  HEK293T 72-hour cytotoxicty Sinf Average: -103%
[8]
  HeLa-ACE2 synergy score with remdesivi [δ]: -0.722
[9]
  HeLa-ACE2 uninfected cytotoxicity Sinf Average: -100%
[10]
  CC50 at 24 h: > 18100 nM
[11]; Severe acute respiratory syndrome coronavirus 2, HeLa-ACE2, 10 h, curve plateau at infinite concentration, read-out: HeLa-ACE2 TOA CoV-2 Sinf Average
  Emax: 100%
[11]; Severe acute respiratory syndrome coronavirus 2, HeLa-ACE2, read-out: HeLa-ACE2 TOA CoV-2 EC50 GeoMean
  EC50: > 7850 nM
[12]
  HepG2 72-hour cytotoxicity Sinf Average: -107%
[13]; HeLa-ACE2, 24 h, read-out: HeLa-ACE2 cell count Sinf Average
  Emax: 98%
[13]; HeLa-ACE2, read-out: HeLa-ACE2 cell count EC50 GeoMean
  EC50: > 4230 nM
